# How the values were obtained:
# Sodium Channel, Site 2 = experiment: Safety screen; assay type: binding, rat
# Protocol: (§1) Blood cell counts, kinase profiler, safety screen, bacterial cytotoxicity, Ames, micronucleus assays were performed by the company Eurofins (France).
# p70S6K(h) = p70S6K(h) (Homo sapiens, UniProt P23443); experiment: Kinase Profiler; assay type: biochemical
# Protocol: (§2) Blood cell counts, kinase profiler, safety screen, bacterial cytotoxicity, Ames, micronucleus assays were performed by the company Eurofins (France). The kinase profiler was performed by the company Eurofins (Discovery, Panlab and Cerep).
# [1] = target: Transporter, Serotonin (5- Hydroxytryptamine) (SERT) (Homo sapiens, UniProt P31645); experiment: Safety screen; assay type: binding
# Protocol: as §1
# Met(Y1248H)(h) = Met(Y1248H)(h) (Homo sapiens, UniProt P08581, Y1230H); experiment: Kinase Profiler; assay type: biochemical
# Protocol: (§3) The kinase profiler was performed by the company Eurofins (Discovery, Panlab and Cerep).
# Abl(Y253F)(h) = Abl(Y253F)(h) (Homo sapiens, UniProt P00519, Y253F); experiment: Kinase Profiler; assay type: biochemical
# Protocol: as §3
# MLK1(h) = MLK1(h) (Homo sapiens, UniProt P80192); experiment: Kinase Profiler; assay type: biochemical
# Protocol: as §2
# Melanocortin MC4 = Melanocortin MC4 (Homo sapiens, UniProt P32245); experiment: Safety screen; assay type: binding
# Protocol: as §1
# PKCι(h) = PKCι(h) (Homo sapiens, UniProt P41743); experiment: Kinase Profiler; assay type: biochemical
# Sequence of PKCι(h) (P41743 whole entry): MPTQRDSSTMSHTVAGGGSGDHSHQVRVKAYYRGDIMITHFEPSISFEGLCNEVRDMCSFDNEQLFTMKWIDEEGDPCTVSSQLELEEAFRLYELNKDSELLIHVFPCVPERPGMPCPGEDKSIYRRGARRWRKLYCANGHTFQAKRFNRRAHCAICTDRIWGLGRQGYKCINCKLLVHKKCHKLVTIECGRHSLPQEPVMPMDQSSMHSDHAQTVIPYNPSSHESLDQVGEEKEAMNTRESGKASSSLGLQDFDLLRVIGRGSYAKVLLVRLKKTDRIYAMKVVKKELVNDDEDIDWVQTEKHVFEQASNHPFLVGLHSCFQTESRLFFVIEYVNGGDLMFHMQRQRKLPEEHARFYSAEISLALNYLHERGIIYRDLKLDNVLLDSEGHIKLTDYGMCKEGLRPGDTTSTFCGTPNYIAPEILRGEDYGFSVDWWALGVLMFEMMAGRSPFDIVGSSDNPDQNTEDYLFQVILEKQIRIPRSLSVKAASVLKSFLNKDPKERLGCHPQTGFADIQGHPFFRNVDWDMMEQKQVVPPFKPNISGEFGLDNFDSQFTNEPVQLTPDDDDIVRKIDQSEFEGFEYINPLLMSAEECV
# Protocol: as §3
# DYRK2(h) = DYRK2(h) (Homo sapiens, UniProt Q92630); experiment: Kinase Profiler; assay type: biochemical
# Protocol: as §3
# TLK1(h) = TLK1(h) (Homo sapiens, UniProt Q9UKI8); experiment: Kinase Profiler; assay type: biochemical
# Protocol: as §3
# Estrogen ERα = Estrogen ERα (Homo sapiens, UniProt P03372); experiment: Safety screen; assay type: binding
# Sequence of Estrogen ERα (P03372 whole entry): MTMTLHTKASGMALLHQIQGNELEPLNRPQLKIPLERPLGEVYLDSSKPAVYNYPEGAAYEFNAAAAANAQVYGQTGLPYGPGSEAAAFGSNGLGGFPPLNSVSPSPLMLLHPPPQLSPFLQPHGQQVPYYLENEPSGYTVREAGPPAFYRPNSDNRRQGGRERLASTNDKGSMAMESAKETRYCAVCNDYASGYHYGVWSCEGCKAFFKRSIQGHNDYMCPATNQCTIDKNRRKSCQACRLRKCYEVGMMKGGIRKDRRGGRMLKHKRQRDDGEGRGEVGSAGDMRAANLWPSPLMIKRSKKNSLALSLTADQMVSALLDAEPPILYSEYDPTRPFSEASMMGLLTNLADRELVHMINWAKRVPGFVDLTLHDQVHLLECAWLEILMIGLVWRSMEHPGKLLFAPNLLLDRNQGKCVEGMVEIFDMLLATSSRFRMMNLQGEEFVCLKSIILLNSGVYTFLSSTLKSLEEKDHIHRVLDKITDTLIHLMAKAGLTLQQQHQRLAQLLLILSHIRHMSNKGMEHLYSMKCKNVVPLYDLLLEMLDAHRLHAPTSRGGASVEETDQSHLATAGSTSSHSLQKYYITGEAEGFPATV
# Protocol: as §1
# MKK3(h) = MKK3(h) (Homo sapiens, UniProt P46734); experiment: Kinase Profiler; assay type: biochemical
# Protocol: as §3
# NEK9(h) = NEK9(h) (Homo sapiens, UniProt Q8TD19); experiment: Kinase Profiler; assay type: biochemical
# Protocol: as §3
# EphB3(h) = EphB3(h) (Homo sapiens, UniProt P54753); experiment: Kinase Profiler; assay type: biochemical
# Protocol: as §2
# IRE1(h) = IRE1(h) (Homo sapiens, UniProt O75460); experiment: Kinase Profiler; assay type: biochemical
# Protocol: as §2
# MAPKAP-K3(h) = MAPKAP-K3(h) (Homo sapiens, UniProt Q16644); experiment: Kinase Profiler; assay type: biochemical
# Protocol: as §3
# [2] = target: Serotonin (5-Hydroxytryptamine) 5-HT1A (Homo sapiens, UniProt P08908); experiment: Safety screen; assay type: binding
# Protocol: as §2
# TAO2(h) = TAO2(h) (Homo sapiens, UniProt Q9UL54); experiment: Kinase Profiler; assay type: biochemical
# Protocol: as §2
# Ret(V804M)(h) = Ret(V804M)(h) (Homo sapiens, UniProt P07949, V804M); experiment: Kinase Profiler; assay type: biochemical
# Protocol: as §3
# PI3KC2a(h) = PI3KC2a(h) (Homo sapiens, UniProt O00443); experiment: Kinase Profiler; assay type: biochemical
# Protocol: as §3
# SAPK2b(h) = SAPK2b(h) (Homo sapiens, UniProt Q15759); experiment: Kinase Profiler; assay type: biochemical
# Protocol: as §3
# CLK3(h) = CLK3(h) (Homo sapiens, UniProt P49761); experiment: Kinase Profiler; assay type: biochemical
# Sequence of CLK3(h) (P49761 whole entry): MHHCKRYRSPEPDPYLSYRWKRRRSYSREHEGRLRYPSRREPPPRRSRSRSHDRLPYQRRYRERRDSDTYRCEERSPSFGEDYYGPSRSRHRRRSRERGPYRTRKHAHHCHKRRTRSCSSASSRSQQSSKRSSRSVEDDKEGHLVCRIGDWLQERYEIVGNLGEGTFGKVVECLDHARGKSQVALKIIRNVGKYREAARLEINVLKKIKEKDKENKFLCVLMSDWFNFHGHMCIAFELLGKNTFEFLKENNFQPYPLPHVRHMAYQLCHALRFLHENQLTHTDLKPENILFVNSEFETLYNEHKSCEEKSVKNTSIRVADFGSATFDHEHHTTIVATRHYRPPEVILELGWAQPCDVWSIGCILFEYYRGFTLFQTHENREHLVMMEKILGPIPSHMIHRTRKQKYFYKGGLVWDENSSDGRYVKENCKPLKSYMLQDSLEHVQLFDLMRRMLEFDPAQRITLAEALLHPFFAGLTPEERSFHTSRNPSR
# Protocol: as §3
# SRMS(h) = SRMS(h) (Homo sapiens, UniProt Q9H3Y6); experiment: Kinase Profiler; assay type: biochemical
# Protocol: as §3
# Abl(T315I)(h) = Abl(T315I)(h) (Homo sapiens, UniProt P00519, T315I); experiment: Kinase Profiler; assay type: biochemical
# Protocol: as §3
# CRIK(h) = CRIK(h) (Homo sapiens, UniProt O14578); experiment: Kinase Profiler; assay type: biochemical
# Protocol: as §3
# Tachykinin NK1 = Tachykinin NK1 (Homo sapiens, UniProt P25103); experiment: Safety screen; assay type: binding
# Sequence of Tachykinin NK1 (P25103 whole entry): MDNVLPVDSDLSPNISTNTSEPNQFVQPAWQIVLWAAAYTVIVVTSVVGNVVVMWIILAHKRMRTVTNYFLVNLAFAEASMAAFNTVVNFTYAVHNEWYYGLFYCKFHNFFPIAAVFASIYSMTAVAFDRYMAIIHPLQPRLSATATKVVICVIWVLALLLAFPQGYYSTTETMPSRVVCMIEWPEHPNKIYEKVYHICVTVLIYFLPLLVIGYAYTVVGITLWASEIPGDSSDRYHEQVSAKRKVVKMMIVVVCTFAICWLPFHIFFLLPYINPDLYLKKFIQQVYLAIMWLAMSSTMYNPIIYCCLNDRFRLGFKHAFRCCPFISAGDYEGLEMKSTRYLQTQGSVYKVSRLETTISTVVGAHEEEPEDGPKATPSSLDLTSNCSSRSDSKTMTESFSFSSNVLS
# Protocol: as §1
# MAP4K4(h) = MAP4K4(h) (Homo sapiens, UniProt O95819); experiment: Kinase Profiler; assay type: biochemical
# Protocol: as §3
# Flt1(h) = Flt1(h) (Homo sapiens, UniProt P17948); experiment: Kinase Profiler; assay type: biochemical
# Protocol: as §3
# STK16(h) = STK16(h) (Homo sapiens, UniProt O75716); experiment: Kinase Profiler; assay type: biochemical
# Sequence of STK16(h) (O75716 whole entry): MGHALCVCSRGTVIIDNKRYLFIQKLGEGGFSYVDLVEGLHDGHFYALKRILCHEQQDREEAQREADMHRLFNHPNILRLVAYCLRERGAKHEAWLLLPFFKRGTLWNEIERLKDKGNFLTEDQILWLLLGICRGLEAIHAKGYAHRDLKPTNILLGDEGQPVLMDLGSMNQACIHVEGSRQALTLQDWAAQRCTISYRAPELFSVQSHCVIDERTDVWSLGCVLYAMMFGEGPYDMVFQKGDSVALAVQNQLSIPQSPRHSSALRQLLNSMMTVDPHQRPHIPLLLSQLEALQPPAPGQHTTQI
# Protocol: as §3
# Ret (V804L)(h) = Ret (V804L)(h) (Homo sapiens, UniProt P07949, V804L); experiment: Kinase Profiler; assay type: biochemical
# Protocol: as §3
# PI3K e (p110a/p65a)(h) = PI3K e (p110a/p65a)(h) (Homo sapiens, UniProt P42336); experiment: Kinase Profiler; assay type: biochemical
# Sequence of PI3K e (p110a/p65a)(h) (P42336 whole entry): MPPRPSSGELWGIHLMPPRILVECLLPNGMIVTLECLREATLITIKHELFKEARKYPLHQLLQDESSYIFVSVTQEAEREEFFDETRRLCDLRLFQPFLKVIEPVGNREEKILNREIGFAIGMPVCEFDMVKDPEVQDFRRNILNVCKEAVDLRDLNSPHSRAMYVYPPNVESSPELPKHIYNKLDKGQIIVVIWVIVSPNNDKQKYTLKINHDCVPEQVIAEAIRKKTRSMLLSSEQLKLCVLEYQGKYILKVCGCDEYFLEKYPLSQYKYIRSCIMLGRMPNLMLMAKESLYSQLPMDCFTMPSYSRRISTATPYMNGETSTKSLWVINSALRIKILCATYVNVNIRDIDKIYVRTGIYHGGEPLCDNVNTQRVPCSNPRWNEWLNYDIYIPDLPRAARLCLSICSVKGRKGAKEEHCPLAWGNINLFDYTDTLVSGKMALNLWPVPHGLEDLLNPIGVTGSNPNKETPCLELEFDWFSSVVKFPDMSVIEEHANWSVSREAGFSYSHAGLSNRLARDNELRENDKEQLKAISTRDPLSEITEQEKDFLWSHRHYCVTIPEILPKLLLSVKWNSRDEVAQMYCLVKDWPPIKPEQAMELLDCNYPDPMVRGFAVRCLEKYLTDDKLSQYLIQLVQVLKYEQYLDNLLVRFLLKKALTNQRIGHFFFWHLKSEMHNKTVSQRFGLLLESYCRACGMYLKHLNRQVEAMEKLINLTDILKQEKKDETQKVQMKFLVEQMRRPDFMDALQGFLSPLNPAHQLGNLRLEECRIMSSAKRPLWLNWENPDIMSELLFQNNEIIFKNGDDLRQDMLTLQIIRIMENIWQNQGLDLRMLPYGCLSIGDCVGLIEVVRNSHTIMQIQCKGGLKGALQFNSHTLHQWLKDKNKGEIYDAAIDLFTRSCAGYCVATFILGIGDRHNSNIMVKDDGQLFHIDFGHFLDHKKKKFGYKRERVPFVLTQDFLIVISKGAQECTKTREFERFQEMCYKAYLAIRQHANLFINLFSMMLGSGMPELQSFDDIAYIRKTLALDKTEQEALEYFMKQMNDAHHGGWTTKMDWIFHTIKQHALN
# Sequence of PI3K e (p110a/p65a)(h) (P27986 1-571 partner limits assumed): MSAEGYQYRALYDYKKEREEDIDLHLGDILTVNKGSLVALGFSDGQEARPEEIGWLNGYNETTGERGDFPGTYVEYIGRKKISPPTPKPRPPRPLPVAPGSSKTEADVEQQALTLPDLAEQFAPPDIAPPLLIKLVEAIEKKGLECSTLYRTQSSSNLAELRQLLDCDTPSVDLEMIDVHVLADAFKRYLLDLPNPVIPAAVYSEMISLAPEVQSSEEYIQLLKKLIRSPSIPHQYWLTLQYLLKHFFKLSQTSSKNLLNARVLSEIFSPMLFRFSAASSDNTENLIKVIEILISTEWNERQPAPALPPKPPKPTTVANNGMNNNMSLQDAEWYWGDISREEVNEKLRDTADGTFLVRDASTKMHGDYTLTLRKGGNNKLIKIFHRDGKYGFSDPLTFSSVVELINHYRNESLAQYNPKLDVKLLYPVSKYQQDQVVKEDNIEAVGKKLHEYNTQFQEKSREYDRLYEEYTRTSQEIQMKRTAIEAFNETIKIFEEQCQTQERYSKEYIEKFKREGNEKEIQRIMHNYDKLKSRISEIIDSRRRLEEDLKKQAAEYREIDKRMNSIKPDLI
# Protocol: as §3
# PI3K (p110a/p85a)(h) = PI3K (p110a/p85a)(h) (Homo sapiens, UniProt P42336); experiment: Kinase Profiler; assay type: biochemical
# Protocol: as §3
# CT26 cells = experiment: Colorectal circulating tumor cells model (pulmonary metastasis); assay type: in vivo, mouse; conditions: 25 mg/kg i.p. daily day 0 to 14
# Protocol: 7-8 weeks-old BALB/c female mice received an intravenous injection through the caudal vein of the cell suspension (CT26 cells, ATCC® CCL-2638™). The volume needed for implantation was loaded in insulin syringes (2x10^5 cells) in 100 μL of phosphate-buffered saline). The anesthetized mice were placed on a warming blanket and were monitored (breathing) until they wake up.
# MSK2(h) = MSK2(h) (Homo sapiens, UniProt O75676); experiment: Kinase Profiler; assay type: biochemical
# Protocol: as §2
# Rse(h) = Rse(h) (Homo sapiens, UniProt Q06418); experiment: Kinase Profiler; assay type: biochemical
# Sequence of Rse(h) (Q06418 41-890): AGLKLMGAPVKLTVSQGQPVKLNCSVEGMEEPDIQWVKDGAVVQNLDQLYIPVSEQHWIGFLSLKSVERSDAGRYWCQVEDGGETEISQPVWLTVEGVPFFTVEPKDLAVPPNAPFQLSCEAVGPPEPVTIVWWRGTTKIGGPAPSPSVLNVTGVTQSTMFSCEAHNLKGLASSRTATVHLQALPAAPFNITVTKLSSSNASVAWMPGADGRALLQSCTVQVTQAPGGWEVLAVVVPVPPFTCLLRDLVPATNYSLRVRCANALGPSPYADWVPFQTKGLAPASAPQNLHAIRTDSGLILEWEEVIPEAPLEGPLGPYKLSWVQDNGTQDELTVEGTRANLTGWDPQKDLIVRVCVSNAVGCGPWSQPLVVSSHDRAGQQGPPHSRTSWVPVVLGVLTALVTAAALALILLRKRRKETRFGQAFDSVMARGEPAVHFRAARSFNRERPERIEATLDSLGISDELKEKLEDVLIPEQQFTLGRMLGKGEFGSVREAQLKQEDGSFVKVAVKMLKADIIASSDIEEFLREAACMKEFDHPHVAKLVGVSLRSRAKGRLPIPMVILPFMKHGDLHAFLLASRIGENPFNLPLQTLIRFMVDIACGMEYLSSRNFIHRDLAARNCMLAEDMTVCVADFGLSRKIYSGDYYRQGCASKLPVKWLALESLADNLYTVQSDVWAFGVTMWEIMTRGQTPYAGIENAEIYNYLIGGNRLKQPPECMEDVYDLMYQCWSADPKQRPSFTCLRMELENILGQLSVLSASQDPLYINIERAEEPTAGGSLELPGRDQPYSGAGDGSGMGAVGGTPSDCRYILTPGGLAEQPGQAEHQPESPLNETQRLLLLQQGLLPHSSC
# Protocol: as §3
# LRRK2(h) = LRRK2(h) (Homo sapiens, UniProt Q5S007); experiment: Kinase Profiler; assay type: biochemical
# Protocol: as §3
# PAK3(h) = PAK3(h) (Homo sapiens, UniProt O75914); experiment: Kinase Profiler; assay type: biochemical
# Protocol: as §3
# LOK(h) = LOK(h) (Homo sapiens, UniProt O94804); experiment: Kinase Profiler; assay type: biochemical
# Protocol: as §3
# PKBγ(h) = PKBγ(h) (Homo sapiens, UniProt Q9Y243); experiment: Kinase Profiler; assay type: biochemical
# Protocol: as §3
# SGK(h) = SGK(h) (Homo sapiens, UniProt O00141); experiment: Kinase Profiler; assay type: biochemical
# Protocol: as §3
structure (smiles),measurement,setting,value
COc1ccc(OC)c(NS(=O)(=O)c2ccc(NC(=O)CCSc3ccc(C)cc3)cc2)c1 [Compound A41],% inh.,"Sodium Channel, Site 2",57%
same,Activity(%),p70S6K(h),103%
same,% inh.,[1],-3%
same,Activity(%),Met(Y1248H)(h),120%
same,Activity(%),Abl(Y253F)(h),102%
same,Activity(%),MLK1(h),102%
same,% inh.,Melanocortin MC4,8%
same,Activity(%),PKCι(h),93%
same,Activity(%),DYRK2(h),104%
same,Activity(%),TLK1(h),102%
same,% inh.,Estrogen ERα,10%
same,Activity(%),MKK3(h),117%
same,Activity(%),NEK9(h),107%
same,Activity(%),EphB3(h),113%
same,Activity(%),IRE1(h),101%
same,Activity(%),MAPKAP-K3(h),112%
same,% inh.,[2],6%
same,Activity(%),TAO2(h),108%
same,Activity(%),Ret(V804M)(h),106%
same,Activity(%),PI3KC2a(h),95%
same,Activity(%),SAPK2b(h),107%
same,Activity(%),CLK3(h),110%
same,Activity(%),SRMS(h),102%
same,Activity(%),Abl(T315I)(h),117%
same,Activity(%),CRIK(h),106%
same,% inh.,Tachykinin NK1,41%
same,Activity(%),MAP4K4(h),107%
same,Activity(%),Flt1(h),103%
same,Activity(%),STK16(h),115%
same,Activity(%),Ret (V804L)(h),93%
same,Activity(%),PI3K e (p110a/p65a)(h),102%
same,Activity(%),PI3K (p110a/p85a)(h),100%
same,animal survival,CT26 cells,improvement in animal survival
same,development of pulmonary metastases,CT26 cells,significantly reduced the development of pulmonary metastases
same,Activity(%),MSK2(h),105%
same,Activity(%),Rse(h),102%
same,Activity(%),LRRK2(h),111%
same,Activity(%),PAK3(h),107%
same,Activity(%),LOK(h),112%
same,Activity(%),PKBγ(h),98%
same,Activity(%),SGK(h),116%
